The experiment deals with CD8+ T cells. Briefly: In vitro immunogenicity: T-cell priming with aAPCs loaded with peptide/MHC complexes and anti-CD28, pMHC multimer readout. The format is cell-based, human. As to conditions: HLA-A*02 healthy donor CD8+ T cells, multimer staining. An excerpt:
In order to obtain information regarding the immunogenicity of the TUMAPs of the present invention, the inventors performed investigations using an in vitro T-cell priming assay based on repeated stimulations of CD8+ T cells with artificial antigen presenting cells (aAPCs) loaded with peptide/MHC complexes and anti-CD28 antibody.
In order to perform in vitro stimulations by artificial antigen presenting cells loaded with peptide-MHC complex (pMHC) and anti-CD28 antibody, the inventors first isolated CD8+ T cells from fresh HLA-A*02 leukapheresis products via positive selection using CD8 microbeads (Miltenyi Biotec, Bergisch-Gladbach, Germany) of healthy donors obtained from the University clinics Mannheim, Germany, after informed consent.
PBMCs and isolated CD8+ lymphocytes were incubated in T-cell medium (TCM) until use consisting of RPMI-Glutamax (Invitrogen, Karlsruhe, Germany) supplemented with 10% heat inactivated human AB serum (PAN-Biotech, Aidenbach, Germany), 100 U/ml Penicillin/100 μg/ml Streptomycin (Cambrex, Cologne, Germany), 1 mM sodium pyruvate (CC Pro, Oberdorla, Germany), 20 μg/ml Gentamycin (Cambrex). 2.5 ng/ml IL-7 (PromoCell, Heidelberg, Germany) and 10 U/ml IL-2 (Novartis Pharma, Nürnberg, Germany) were also added to the TCM at this step.
Generation of pMHC/anti-CD28 coated beads, T-cell stimulations and readout was performed in a highly defined in vitro system using four different pMHC molecules per stimulation condition and 8 different pMHC molecules per readout condition.
The purified co-stimulatory mouse IgG2a anti human CD28 Ab 9.3 (Jung et al., 1987) was chemically biotinylated using Sulfo-N-hydroxysuccinimidobiotin as recommended by the manufacturer (Perbio, Bonn, Germany). Beads used were 5.6 μm diameter streptavidin coated polystyrene particles (Bangs Laboratories, Illinois, USA).
800.000 beads/200 μl were coated in 96-well plates in the presence of 4×12.5 ng different biotin-pMHC, washed and 600 ng biotin anti-CD28 were added subsequently in a volume of 200 μl. Stimulations were initiated in 96-well plates by co-incubating 1×10^6 CD8+ T cells with 2×10^5 washed coated beads in 200 μl TCM supplemented with 5 ng/ml IL-12 (PromoCell) for 3 days at 37° C. Half of the medium was then exchanged by fresh TCM supplemented with 80 U/ml IL-2 and incubating was continued for 4 days at 37° C. This stimulation cycle was performed for a total of three times. For the pMHC multimer readout using eight different pMHC molecules per condition, a two-dimensional combinatorial coding approach was used as previously described (Andersen et al., 2012) with minor modifications encompassing coupling to 5 different fluorochromes. Finally, multimeric analyses were performed by staining the cells with Live/dead near IR dye (Invitrogen, Karlsruhe, Germany), CD8-FITC antibody clone SK1 (BD, Heidelberg, Germany) and fluorescent pMHC multimers. For analysis, a BD LSRII SORP cytometer equipped with appropriate lasers and filters was used. Peptide specific cells were calculated as percentage of total CD8+ cells. Evaluation of multimeric analysis was done using the FlowJo software (Tree Star, Oregon, USA). In vitro priming of specific multimer+CD8+ lymphocytes was detected by comparing to negative control stimulations.

With “189 (RLFEEVLGV; listed as Homo sapiens) [compound 189]”, the wells result is listed as “++ (20%-49% = ++)”.
On to “190 (SLYKGLLSV; listed as Homo sapiens) [compound 190]”, for which the wells result is listed as “++ (20%-49% = ++)”.
Take “196 (ILVDWLVQV; listed as Homo sapiens) [compound 196]”: the wells result was “++ (20%-49% = ++)”.
In the case of “191 (ALSVLRLAL; listed as Homo sapiens) [compound 191]” it was “++ (20%-49% = ++)”.
In the case of “198 (KIQEILTQV; listed as Homo sapiens) [compound 198]” it was “++ (20%-49% = ++)”.
In the case of “194 (LLWGNLPEI; listed as Homo sapiens) [compound 194]”, the wells result was “++ (20%-49% = ++)”.
Consider “193 (FLLAEDTKV; listed as Homo sapiens) [compound 193]”, for which the wells entry is “++ (20%-49% = ++)”.
In the case of “192 (GLAALAVHL; listed as Homo sapiens) [compound 192]” it was “++ (20%-49% = ++)”; in that of “195 (FLFVDPELV; listed as Homo sapiens) [compound 195]”, “+++ (50%-69% = +++)”; in that of “197 (VLLNEILEQV; listed as Homo sapiens) [compound 197]”, “++ (20%-49% = ++)”.

(Values after patent US12036271B2, “Peptides and combination of peptides as targets or active ingredients for use in immunotherapy against AML and other cancers” (Immatics Biotechnologies GmbH, priority 2016, dated 2024).)
